Laboratory results from patent publication US20060100431A1, “Biologically active compounds” (Amura Therapeutics Limited, priority 2002, published 2006).

Columns and labels:
[1] = target: Wild-type cruzipain (Trypanosoma cruzi, UniProt P25779); assay: Trypanosoma cruzi cruzipain peptidase activity assay (Ki); type: biochemical; conditions: read-out: Ki, inhibitors of cruzain and cruzipains
In short: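 Native cruzipain from T. cruzi Dm28 epimastigotes, 2.5 nM, in 100 mM sodium phosphate pH 6.75 with 1 mM EDTA and 10 mM L-cysteine, 25 °C, DMSO <1%. Rates taken from continuous fluorogenic substrate read; Ki by regression assuming reversible pure-competitive inhibition.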

[2] = target: T1, human cathepsin B (Homo sapiens, UniProt P07858); assay: Cathepsin B peptidase activity assay (Ki); type: biochemical; conditions: read-out: Ki, inhibitors of cathepsin B
T1 construct: purchased CN Biosciences
Description: Unless otherwise stated, all general chemicals and biochemicals were purchased from either the Sigma Chemical Company, Poole, Dorset, U.K or from Fisher Scientific UK, Loughborough, Leicestershire, U.K. Absorbance assays were carried out in flat-bottomed 96-well plates (Spectra; Greiner Bio-One Ltd., Stonehouse, Gloucestershire, U.K.) using a SpectraMax PLUS384 plate reader (Molecular Devices, Crawley, U.K.). […] Fluorescence assays were monitored using a SpectraMax Gemini fluorescence plate reader (Molecular Devices). For substrates employing either a 7-amino-4-methylcoumarin (AMC) or a 7-amino-4-trifluoromethylcoumarin (AFC) fluorophore, assays were monitored at an excitation wavelength of 365 nm and an emission wavelength of 450 nm and the fluorescence plate reader calibrated with AMC. For substrates employing a 3-amino-benzoyl (Abz) fluorophore, assays were monitored at an excitation wavelength of 310 nm and an emission wavelength of 445 nm; the fluorescence plate reader calibrated with 3-amino-benzamide (Fluka). Unless otherwise indicated, all the peptidase substrates were purchased from Bachem UK, St Helens, Merseyside, UK. […] Hydroxyethylpiperazine ethanesulfonate (HEPES), tris-hydroxylmethyl aminomethane (tris) base, bis-tris-propane and all the biological detergents (e.g. CHAPS, zwittergents, etc.) were purchased from CN Biosciences UK, Beeston, Nottinghamshire, U.K. Glycerol was purchased from Amersham Pharmacia Biotech, Little Chalfont, Buckinghamshire, U.K. Stock solutions of substrate or inhibitor were made up to 10 mM in 100% dimethylsulfoxide (DMSO) (Rathburns, Glasgow, U.K.) and diluted as appropriately required. In all cases the DMSO concentration in the assays was maintained at less than 1% (vol./vol.).
Enzyme was added as required to initiate the reaction and the activity, as judged by the change in fluorescence upon conversion of substrate to product, was monitored over time. All assays were carried out at 25±1° C.
Bovine cathepsin S, human cathepsin L, human cathepsin H and human cathepsin B were obtained from CN Biosciences. Recombinant human cathepsin S, human cathepsin K and human cathepsin X were obtained from Dr. Boris Turk (Josef Stefan Institute, Ljubljana, Slovenia). Unless otherwise stated, all peptidase activity assays were carried out in 10 mM bis-tris-propane (BTP), pH 6.5 containing 1 mM EDTA, 5 mM 2-mercaptoethanol and 1 mM CaCl2.
The apparent inhibition constant (Ki) for each compound was determined on the basis that inhibition was reversible and occurred by a pure-competitive mechanism. […] [formula]
[formula] Ki^app=Ki(1+[So]/KM^app) (4)
Curves were fitted by non-linear regression analysis (Prism) using a fixed value for the enzyme concentration.

Sequence of Wild-type cruzipain (P25779 whole entry): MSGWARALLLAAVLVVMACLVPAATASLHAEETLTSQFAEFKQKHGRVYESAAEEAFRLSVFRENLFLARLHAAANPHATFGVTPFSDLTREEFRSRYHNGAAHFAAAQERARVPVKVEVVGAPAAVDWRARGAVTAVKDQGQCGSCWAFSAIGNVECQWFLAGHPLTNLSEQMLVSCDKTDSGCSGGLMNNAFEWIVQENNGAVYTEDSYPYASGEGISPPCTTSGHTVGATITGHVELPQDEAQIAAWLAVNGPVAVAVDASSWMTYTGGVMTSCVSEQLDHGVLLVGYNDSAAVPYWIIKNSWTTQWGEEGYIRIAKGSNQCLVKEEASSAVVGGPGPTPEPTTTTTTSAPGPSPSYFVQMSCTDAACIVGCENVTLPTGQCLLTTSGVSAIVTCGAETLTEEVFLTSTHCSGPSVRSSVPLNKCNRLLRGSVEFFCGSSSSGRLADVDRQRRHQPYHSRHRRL

Row | Compound | Ki [1] [µM] | Ki [2] [µM]
1 | O=C(N[C@@H](Cc1ccc(O)cc1)C(=O)N1CC[C@@H]2[C@H]1C(=O)CN2C(=O)c1cccc2ccccc12)c1cccc2ccccc12 [Example 301, (3aR,6aS)-Naphthalene-1-carboxylic acid {(1S)-1-(4-hydroxy-benzyl)-2-[4-(naphthalene-1-carbonyl)-6-oxo-hexahydro-pyrrolo[3,2-b]pyrrol-1-yl]-2-oxo-ethyl}-amide] | < 5 | < 5
2 | CC(C)C[C@H](NC(=O)c1ccc(Oc2ccccc2)cc1)C(=O)N1CC[C@@H]2[C@H]1C(=O)CN2C(=O)c1cccc(S(C)(=O)=O)c1 [Example 41, (3aR,6aS)-N-{(1S)-1-[4-(3-Methanesulfonyl-benzoyl)-6-oxo-hexahydro-pyrrolo[3,2-b]pyrrole-1-carbonyl]-3-methyl-butyl}-4-phenoxy-benzamide] | – | < 5
3 | O=C(N[C@@H](Cc1ccc(O)cc1)C(=O)N1CC[C@@H]2[C@H]1C(=O)CN2C(=O)C12CC3CC(CC1C3)C2)c1cccc(Br)c1 [Example 308, (3aR,6aS)-3-Bromo-N-[(1S)-2-[4-(hexahydro-2,5-methano-pentalene-3a-carbonyl)-6-oxo-hexahydro-pyrrolo[3,2-b]pyrrole-1-yl]-1-(4-hydroxy-benzyl)-2-oxo-ethyl]-benzamide] | < 5 | < 5
4 | CC(C)C[C@H](NC(=O)c1ccc([N+](=O)[O-])cc1)C(=O)N1CC[C@@H]2[C@H]1C(=O)CN2C(=O)c1cccc(S(C)(=O)=O)c1 [Example 58, (3aR,6aS)-N-{(1S)-1-[4-(3-Methanesulfonyl-benzoyl)-6-oxo-hexahydro-pyrrolo[3,2-b]pyrrole-1-carbonyl]-3-methyl-butyl}-4-nitro-benzamide] | < 5 | < 5
5 | CS(=O)(=O)c1cccc(C(=O)N2CC(=O)[C@@H]3[C@H]2CCN3C(=O)[C@H](Cc2ccc(O)cc2)NC(=O)c2cccc(Br)c2)c1 [Example 304, (3aR,6aS)-3-Bromo-N-{(1S)-1-(4-hydroxy-benzyl)-2-[4-(3-methanesulfonyl-benzoyl)-6-oxo-hexahydro-pyrrolo[3,2-b]pyrrole-1-yl]-2-oxo-ethyl}-benzamide] | < 5 | < 5
6 | O=C(N[C@@H](Cc1ccc(O)cc1)C(=O)N1CC[C@@H]2[C@H]1C(=O)CN2C(=O)C12CC3CC(CC(C3)C1)C2)c1cccc(Br)c1 [Example 307, (3aR,6aS)-N-[(1S)-2-[4-(Adamantane-1-carbonyl)-6-oxo-hexa hydro-pyrrolo[3,2-b]pyrrole-1-yl)-1-(4-hydroxy-benzyl)-2-oxo-ethyl]-3-bromo-benzamide] | < 5 | < 5
7 | CS(=O)(=O)c1ccccc1C(=O)N1CC(=O)[C@@H]2[C@H]1CCN2C(=O)[C@H](CC1CCCCC1)NC(=O)C(c1ccccc1)c1ccccc1 [Example 279, (3aR,6aS)-N-{(1S)-1-Cyclohexylmethyl-2-[4-(2-methanesulfonyl-benzoyl)-6-oxo-hexahydro-pyrrolo[3,2-b]pyrrole-1-yl]-2-oxo-ethyl}-2,2-diphenyl-acetamide] | – | < 5
8 | O=C(N[C@@H](Cc1ccc(O)cc1)C(=O)N1CC[C@@H]2[C@H]1C(=O)CN2C(=O)c1cccc([N+](=O)[O-])c1)c1cccc(Br)c1 [Example 305, (3aR,6aS)-3-Bromo-N-{(1S)-1-(4-hydroxy-benzyl)-2-[4-(3-nitro-benzoyl)-6-oxo-hexahydro-pyrrolo[3,2-b]pyrrole-1-yl]-2-oxo-ethyl}-benzamide] | < 5 | < 5
9 | CC(C)C[C@H](NC(=O)c1ccc(Oc2ccccc2)cc1)C(=O)N1CC[C@@H]2[C@H]1C(=O)CN2C(=O)c1ccccc1S(C)(=O)=O [Example 40, (3aR,6aS)-N-{(1S)-1-[4-(2-Methanesulfonyl-benzoyl)-6-oxo-hexahydro-pyrrolo[3,2-b]pyrrole-1-carbonyl]-3-methyl-butyl}-4-phenoxy-benzamide] | – | < 5

Results, then the compound that gave them:

Row | Ki [1] [µM] | Ki [2] [µM] | Compound
10 | < 5 | < 5 | O=C(N[C@@H](Cc1ccc(O)cc1)C(=O)N1CC[C@@H]2[C@H]1C(=O)CN2C(=O)c1ccc(O)cc1)c1cccc(Br)c1 [Example 309, (3aR,6aS)-3-Bromo-N-[(1S)-2-[4-(4-hydroxy-benzoyl)-6-oxo-hexa hydro-pyrrolo[3,2-b]pyrrole-1-yl]-1-(4-hydroxy-benzyl)-2-oxo-ethyl]-benzamide]
11 | < 5 | < 5 | O=C(N[C@@H](Cc1ccc(O)cc1)C(=O)N1CC[C@@H]2[C@H]1C(=O)CN2C(=O)c1ccccc1)c1nccc2ccccc12 [Example 299, (3aR,6aS)-Isoquinoline-1-carboxylic acid [(1S)-2-(4-benzoyl-6-oxo-hexahydro-pyrrolo[3,2-b]pyrrol-1-yl)-1-(4-hydroxy-benzyl)-2-oxo-ethyl]-amide]
12 | – | < 5 | O=C(N[C@@H](CSCc1ccccc1)C(=O)N1CC[C@@H]2[C@H]1C(=O)CN2C(=O)c1ccccc1)c1cc2ccccc2s1 [Example 252, (3aR,6aS)-Benzo[b]thiophene-2-carboxylic acid [(1R)-2-(4-benzoyl-6-oxo-hexahydro-pyrrolo[3,2-b]pyrrol-1-yl)-1-benzylsulfanylmethyl-2-oxo-ethyl]-amide]
13 | – | < 5 | O=C(N[C@@H](CSCc1ccccc1)C(=O)N1CC[C@@H]2[C@H]1C(=O)CN2C(=O)c1ccccc1)c1csc2ccccc12 [Example 253, (3aR,6aS)-Benzo[b]thiophene-3-carboxylic acid [(1R)-2-(4-benzoyl-6-oxo-hexahydro-pyrrolo[3,2-b]pyrrole-1-yl)-1-benzylsulfanylmethyl-2-oxo-ethyl]-amide]
14 | – | < 5 | O=C(N[C@@H](CSCc1ccccc1)C(=O)N1CC[C@@H]2[C@H]1C(=O)CN2C(=O)c1ccc(O)cc1)c1ccsc1 [Example 267, (3aR,6aS)-Thiophene-3-carboxylic acid {(1R)-1-benzylsulfanylmethyl-2-[4-(4-hydroxy-benzoyl)-6-oxo-hexahydro-pyrrolo[3,2-b]pyrrol-1-yl]-2-oxo-ethyl}-amide]
15 | – | < 5 | O=C(N[C@@H](CSCc1ccccc1)C(=O)N1CC[C@@H]2[C@H]1C(=O)CN2C(=O)c1cccc([N+](=O)[O-])c1)c1ccsc1 [Example 264, (3aR,6aS)-Thiophene-3-carboxylic acid {(1R)-1-benzylsulfanylmethyl-2-[4-(3-nitro-benzoyl)-6-oxo-hexahydro-pyrrolo[3,2-b]pyrrole-1-yl]-2-oxo-ethyl}-amide]
16 | < 5 | < 5 | O=C(N[C@@H](Cc1ccc(O)cc1)C(=O)N1CC[C@@H]2[C@H]1C(=O)CN2C(=O)c1ccccc1)c1cc2ccccc2s1 [Example 300, (3aR,6aS)-Benzo[b]thiophene-2-carboxylic acid [(1S)-2-(4-benzoyl-6-oxo-hexahydro-pyrrolo[3,2-b]pyrrole-1-yl)-1-(4-hydroxy-benzyl)-2-oxo-ethyl]-amide]
17 | – | < 5 | O=C(N[C@@H](CSCc1ccccc1)C(=O)N1CC[C@@H]2[C@H]1C(=O)CN2C(=O)C12CC3CC(CC1C3)C2)c1ccsc1 [Example 266, (3aR,6aS)-Thiophene-3-carboxylic acid {(1R)-1-benzylsulfanylmethyl-2-[4-(hexahydro-2,5-methano-pentalene-3a-carbonyl)-6-oxo-hexahydro-pyrrolo[3,2-b]pyrrole-1-yl]-2-oxo-ethyl}-amide]
